# Patent US20120010272A1, “RNA Interference Mediated Inhibition of Apoptosis Signal-Regulating Kinase 1 (ASK1) Gene Expression Using Short Interfering Nucleic Acid (siNA)” (Merck Sharp & Dohme Corp., priority 2009, published 2012)
# [invAb] = inverted abasic unit; m = 2'-O-methyl; r = 2'-OH (RNA); f = 2'-fluoro
# Columns and labels:
# Assay type in all cases: cell-based
# [1] = tested on: ASK1 mRNA; assay: ASK1 mRNA knock-down by siNA in human A549 cells (RNAiMax transfection, Taqman RT-PCR)
# Description: A549 (human; ATCC cat #CCL-185): Cells were cultured at 37° C. in the presence of 5% CO2 and grown in Ham's F12K medium with 2 mM L-glutamine adjusted to contain 1.5 g/L sodium bicarbonate and supplemented with fetal bovine serum at a final concentration of 10%, 100 μg/mL of streptomycin, and 100 U/mL penicillin.
# (§1) Cells were plated in all wells of a tissue-culture treated, 96-well plate at a final count of 5000 cells/well (A549 cell line) and 3,500 cells/well (Hepal-6 cell line) in 100 μL of the appropriate culture media. The cells were cultured for 24 hours after plating at 37° C. in the presence of 5% CO2.
# (§2) After 24 hours, complexes containing siNA and RNAiMax were created as follows: A solution of RNAiMax diluted 33-fold in OPTI-MEM was prepared. In parallel, solutions of the siNAs for testing were prepared to a final concentration of 120 nM in OPTI-MEM. After incubation of RNAiMax/OPTI-MEM solution at room temperature for 5 min, an equal volume of the siRNA solution and the RNAiMax solution were added together for each of the siNAs.
# (§3) This solution was incubated at room temperature for 20 minutes. After incubation, 20 uL of the solution was added to each of the relevant wells. The final concentration of siNA in each well was 10 nM and the final volume of RNAiMax in each well was 0.3 ul.
# (§4) The time of incubation with the RNAiMax-siNA complexes was 24 hours and there was no change in media between transfection and harvesting, unless otherwise indicated.
# (§5) RNA was extracted from a 96-well plate using the TaqMan® Gene Expression Cells-to-CT™ Kit (Cat #4399002) with a modified protocol. Briefly, a 60 uL (1 plate) or 110 uL (2 plates) of the Lysis Solution with DNase I was dispensed into each well of the Lysis Buffer Plate (twin.tec full skirt plate). The lysis buffer and stop plates were stored at 4° C. until the cells were washed.
# (§6) The plate was spun at 1100 rpm for 5 minutes. The culture medium was aspirated and discarded from the wells of the culture plate. The lysis was performed automatically using a BioMek FX instrument and method. After the Biomek method was completed, the lysis plate was incubated for 2 min. at room temperature. The lysis plate can be stored for 2 hours at 4° C., or at −20° C. or −80° C. for two months.
# (§7) Each well of the reverse transcription plate required 10 uL of 2× reverse transcriptase Buffer, 1 uL of 20× reverse transcription enzyme and 2 uL of nuclease-free water. The reverse transcription master mix was prepared by mixing 2× reverse transcription buffer, 20× reverse transcription enzyme mix, and nuclease-free water. 13 uL of the reverse transcription master mix was dispensed into each well of the reverse transcription plate (semi-skirted). A separate reverse transcription plate was prepared for each cell plate. The plate was loaded onto a Biomek NX or Biomek FX Dual-96 and the Biomek method was run. The program is programmed to automatically added 7 uL of lysate from the cell lysis procedure described above into each well of the reverse transcription plate. The plate is sealed and spun on a centrifuge (1000 rpm for 30 seconds) to settle the contents to the bottom of the reverse transcription plate. The plate is placed in a thermocycler at 37° C. for 60 min, 95° C. for 5 min, and 4° C. until the plate is removed from the thermocycler. Upon removal, if not used immediately, the plate was frozen at −20° C.
# (§8) A series of probes and primers were used to detect the various mRNA transcripts of the genes of ASK1, ASK2, and GAPDH in human cell lines and ASK1 and GAPDH in mouse cell lines. All Taqman probes and primers for the experiments were supplied as pre-validated sets by ABI (see Table 2).
# (§9) The assays were performed on an ABI 7900 instrument, according to the manufacturer's instructions. A TaqMan Gene Expression Master Mix (provided in the Cells-to-CT™, Applied Biosystems, Cat #4399002) was used. […]
# [2] = tested on: ASK1 mRNA; assay: ASK1 mRNA knock-down by siNA in mouse Hepa1-6 cells (RNAiMax transfection, Taqman RT-PCR); details: 10 nM siNA, 24 hrs post-transfection, vs non-targeting control, GAPDH-normalized, mean ± S.D., two experiments
# Description: Hepal-6 (murine; ATCC cat #CRL-1830): Cells were cultured at 37° C. in the presence of 5% CO2 and grown in Dulbecco's modified Eagle's medium (DMEM) with 4 mM L-glutamine adjusted to contain 1.5 g/L sodium bicarbonate and 4.5 g/L glucose and supplemented with 10% of fetal bovine serum, 100 μg/mL of streptomycin, and 100 U/mL penicillin.
# as §1, §2, §3, §4, §5, §6, §7, §8, §9
# [3] = tested on: mRNA transcript of human ASK2; assay: ASK2 specificity screen: effect of ASK1 siNAs on human ASK2 mRNA in A549 cells; details: 1 nM siNA, three independent experiments, mean ± standard deviation
# Description: A549 cells were plated in all wells of a tissue-culture treated, 96-well plate at a final count of 5,000 cells/well in 100 μL of appropriate culture media. Cells were cultured for 24 hours after plating at 37° C. in the presence of 5% CO2.
# as §2, with “follows.” for “follows:”, “siRNAs” for “siNAs”, “12” for “120”, “siNA” for “siRNA”, “siNAs. […] This solution was incubated at room temperature for 20 minutes. After incubation, 20 uL of the solution was added to each of the relevant wells. The final concentration of siNA in each well was 1 nM and the final volume of RNAiMax in each well was 0.3 uL. The time of incubation with the RNAiMax-siNA complexes was 24 hours.” for “siNAs.”
# as §5, §6, §7, §8
# The assays were performed on an ABI 7900 instrument, according to the manufacturer's instructions. A TaqMan Gene Expression Master Mix (provided in the Cells-to-CT™, Applied Biosystems, Cat #4399002) was used. The PCR reactions were carried out at 50° C. for 2 min, 95° C. for 10 min followed by 40 cycles at 95° C. for 15 secs and 60° C. for 1 min.
# The expression level of the gene of interest and % knock-down was calculated using Comparative Ct method:
# ΔΔCt=ΔCt(Target siRNA)−ΔCt(NTC)
# Relative expression level=2^−ΔΔCt
# The non-targeting control siRNA was, unless otherwise indicated, chosen as the value against which to calculate the % knock-down, because it is the most relevant control.
# The specificity of these siNAs was also assessed. […]
# [4] = tested on: ASK1 mRNA; assay: ASK1 mRNA knock-down by siNA in human A549 cells (RNAiMax transfection, Taqman RT-PCR); details: 12 concentrations 0.083 fM to 30 nM, mean ± S.D.
substance,measurement,setting,value
"25399-DC: siNA duplex, sense B ccAAcAcuAcAGucAGGAA TTB, antisense UUCcuGAcuGuAGuGuuGGUU (SEQ ID NO: 79/80), human ASK1 target site 1640 (sense CCAACACUACAGUCAGGAATT; antisense UUCCUGACUGUAGUGUUGGUU; sense: DNA at AGT, 2'-fluoro at CU, [invAb] at 5' end, 3' end, backbone not given here; antisense: sugars from the 5' end rrrffmmffmfmmfmffmmmm, backbone not given here)",% KD Human,"[1]; 10 nM siNA, 24 hrs post-transfection, vs non-targeting control, GAPDH-normalized, mean ± S.D., two experiments",81 ± 2%
same,% KD ASK-1 mRNA at 10 nM,"[1]; 10 nM, mean ± S.D. (Table 5)",81 ± 2%
same,% KD ASK-1 10 nM,"[1]; 10 nM, two experiments, mean ± standard deviation (Table 6)",81 ± 2%
same,% KD Mouse,[2],62 ± 0%
same,% KD ASK-2 1 nM,[3],9 ± 8%
same,IC50,[4],150 ± 43 pM
